Test results as given in patent EP4768499A1, “MACROCYCLIC PEPTIDE COMPOUND HAVING CELL MEMBRANE PERMEABILITY AND METABOLIC STABILITY, AND LIBRARY CONTAINING SAME” (Chugai Seiyaku Kabushiki Kaisha, priority 2023, dated 2025).
Like-named read-outs stand apart in the source and are kept apart here. Starred links: 1 amine or outer side, 2 acyl side, 3 side chain; linkers in the order of their positions; H or OH if unused. Positions of bridges follow the written chain, without caps; N, C: chain ends. Non-standard residues stand in square brackets, D forms with d. Residues, ends and D or L forms follow the SMILES beside them. *: point of attachment. NMeF = CN[C@@H](Cc1ccccc1)C(=O)O; NMeGABA = CN(CCCC(=O)[*:2])[*:1]; NMeI = CC[C@H](C)[C@H](NC)C(=O)O; NMeT = CN[C@H](C(=O)O)[C@@H](C)O; hPhe = N[C@@H](CCc1ccccc1)C(=O)O; NMeβAla = CN(CCC(=O)[*:2])[*:1]; NMeD = CN[C@@H](CC(=O)O)C(=O)O; NMeL = CN[C@@H](CC(C)C)C(=O)O; NMeV = CN[C@H](C(=O)O)C(C)C; NMeAbu = CC[C@H](NC)C(=O)O; NMeA = CN[C@@H](C)C(=O)O; Piperidide = C1CCN(*)CC1; Abu = CC[C@H](N)C(=O)O; NBuGly = CCCCNCC(=O)O; Sar = CNCC(=O)O; tBu = CC(C)(C)*

Experiments:
[1] = Metabolic stability test: liver microsomal stability assay; assay type: in vitro ADME, mouse; settings: for microsomal CLint at 1 µM: male, pH 7.4, presence of NADPH, read-out: Mouse Hepatic Microsome CLh,int NADPH(+)
[2] = Membrane permeability test using Caco-2 cells with preincubation; assay type: in vitro ADME; settings: Caco-2
Caco-2 cells = experiment: as above; assay type: in vitro ADME
[3] = mouse liver microsomes 0.5 mg protein/mL, compound 1 µM
[4] = mouse liver microsomes 0.5 mg protein/mL, compound 1 µM, absence of NADPH
[5] = preincubation 20 to 24 hours, Apical FaSSIF/HBSS pH 6.0, Basal HBSS 4% BSA pH 7.4, 180 minutes, read-out: Caco2 Papp
[6] = Caco-2 cells, preincubation 20 to 24 hours, apical FaSSIF/HBSS 1% DMSO pH 6.0, basal HBSS 4% BSA pH 7.4, basal sample at 180 minutes

SMILES | Mouse Hepatic Microsome CLh,int NADPH(-) [1] [µL/min/mg Protein] | Papp A→B [2] [×10⁻⁶ cm/s] | Caco2 Papp (10^-6 cm/sec) (Caco-2 cells; Caco-2) | microsomal CLint at 1 µM [1, 3] [µL/min/mg] | Mouse Hepatic Microsome CLh,int NADPH(-) [1, 4] [µL/min/mg Protein] | Papp A→B [2, 5] [×10⁻⁶ cm/s] | Caco2 Papp (10^-6 cm/sec) (Caco-2 cells; [6])
CC[C@H](C)[C@H]1C(=O)N(C)[C@@H](CC(C)C)C(=O)N[C@@H](CCc2ccccc2)C(=O)N(C)[C@@H](CC(C)C)C(=O)N(C)CCC(=O)N(C)[C@@H](C(C)C)C(=O)N[C@@H](CC(C)C)C(=O)N(C)[C@@H](CC(C)C)C(=O)N[C@@H]([C@@H](C)O)C(=O)N(C)CCC(=O)N(C)[C@@H](Cc2ccccc2)C(=O)N[C@@H](C(C)C)C(=O)N(C)[C@H](C(=O)N2CCCCC2)CC(=O)N(C)CC(=O)N1C [pd096] ([Sar][NMeI][NMeL][hPhe][NMeL][NMeβAla][NMeV]L[NMeL]T[NMeβAla][NMeF]V[NMeD]-Piperidide; lactam N-14) | 18.2 | 0.51 | 0.51 10^-6 cm/sec |  |  |  | 
CC(C)C[C@@H]1NC(=O)[C@@H]2CCCN2C(=O)[C@H](C(C)C)N(C)C(=O)[C@H](C)NC(=O)[C@H](CC(C)C)N(C)C(=O)[C@@H](C(C)C)NC(=O)C[C@@H](C(=O)N2CCCCC2)NC(=O)[C@H](C(C)C)N(C)C(=O)[C@H](Cc2ccccc2)N(C)C(=O)[C@H](CC(C)C)NC(=O)[C@H](COC(C)(C)C)NC(=O)[C@H](CC(C)C)N(C)C(=O)CN(C)C1=O [pd097] ([dV][NMeL]A[NMeV]PL[Sar][NMeL]S(tBu)L[NMeF][NMeV]D-Piperidide; lactam N-13) |  |  |  | 20.4 | 18.8 | 0.54 | 0.54 10^-6 cm/sec
CC[C@H](C)[C@@H]1NC(=O)[C@H](C)NC(=O)[C@H](CC(C)C)N(C)C(=O)[C@H](COC(C)(C)C)NC(=O)[C@H](CC(C)C)N(C)C(=O)[C@@H]2CCCN2C(=O)[C@H](Cc2ccccc2)NC(=O)[C@H]([C@@H](C)CC)N(C)C(=O)[C@H](CC(C)C)N(C)C(=O)CCCN(C)C(=O)C[C@@H](C(=O)N2CCCCC2)NC(=O)[C@H](Cc2ccccc2)N(C)C(=O)[C@H](CC)N(C)C1=O [pd098] ([NMeGABA][NMeL][NMeI]FP[NMeL]S(tBu)[NMeL]AI[NMeAbu][NMeF]D-Piperidide; lactam N-13) |  |  |  | 44.5 | 37.8 | 0.57 | 0.57 10^-6 cm/sec
CCCCN1CC(=O)N(C)[C@@H](CC)C(=O)N[C@H](C(=O)N2CCCCC2)CC(=O)N(C)[C@@H](C)C(=O)N[C@@H]([C@@H](C)CC)C(=O)N(C)[C@@H](Cc2ccccc2)C(=O)N(C)[C@@H](CC(C)C)C(=O)N[C@@H](C(C)C)C(=O)N(C)CC(=O)N[C@@H](CC(C)C)C(=O)N(C)[C@@H](Cc2ccccc2)C(=O)N(C)[C@@H](C)C(=O)N[C@@H](CC(C)C)C1=O [pd099] ([NMeA]I[NMeF][NMeL]V[Sar]L[NMeF][NMeA]L[NBuGly][NMeAbu]D-Piperidide; lactam N-13) |  |  |  | 30.3 | 27.8 | 0.41 | 0.41 10^-6 cm/sec
CCCCN1CC(=O)N[C@@H](COC(C)(C)C)C(=O)N(C)[C@@H](Cc2ccccc2)C(=O)N[C@@H](CC(C)C)C(=O)N(C)[C@@H](C(C)C)C(=O)N[C@H](C(=O)N2CCCCC2)CC(=O)N[C@H](C(C)C)C(=O)N(C)[C@@H](Cc2ccccc2)C(=O)N[C@@H](CC(C)C)C(=O)N(C)[C@@H](C(C)C)C(=O)N(C)[C@@H](CC(C)C)C(=O)N[C@@H]([C@@H](C)O)C(=O)N(C)[C@@H](CC(C)C)C1=O [pd100] ([dV][NMeF]L[NMeV][NMeL]T[NMeL][NBuGly]S(tBu)[NMeF]L[NMeV]D-Piperidide; lactam N-13) |  |  |  | 39.6 | 28.4 | < 0.12 | <0.12 10^-6 cm/sec
CC[C@@H]1NC(=O)[C@H](Cc2ccccc2)N(C)C(=O)[C@H]([C@@H](C)CC)NC(=O)[C@H](CC(C)C)N(C)C(=O)[C@H](CC(C)C)NC(=O)CCN(C)C(=O)C[C@@H](C(=O)N2CCCCC2)NC(=O)[C@H](CC(C)C)N(C)C(=O)[C@H](C)N(C)C(=O)[C@H]([C@@H](C)O)NC(=O)[C@H](CC(C)C)N(C)C(=O)[C@H](C(C)C)NC(=O)[C@H](Cc2ccccc2)N(C)C1=O [pd101] ([NMeβAla]L[NMeL]I[NMeF][Abu][NMeF]V[NMeL]T[NMeA][NMeL]D-Piperidide; lactam N-13) |  |  |  | 41.1 | 31.5 | 0.16 | 0.16 10^-6 cm/sec
CC[C@H](C)[C@@H]1NC(=O)[C@H](C)N(C)C(=O)[C@H]([C@@H](C)O)NC(=O)[C@H](Cc2ccccc2)N(C)C(=O)[C@H](COC(C)(C)C)NC(=O)[C@H](CC(C)C)N(C)C(=O)[C@H](CCc2ccccc2)NC(=O)[C@@H]2CCCN2C(=O)[C@H]([C@@H](C)CC)NC(=O)[C@H](CC(C)C)N(C)C(=O)CCCN(C)C(=O)C[C@@H](C(=O)N2CCCCC2)NC(=O)[C@H](CC(C)C)N(C)C1=O [pd102] ([NMeGABA][NMeL]IP[hPhe][NMeL]S(tBu)[NMeF]T[NMeA]I[NMeL]D-Piperidide; lactam N-13) |  |  |  | 32.9 | 25.1 | 0.09 | 0.09 10^-6 cm/sec
CCCCN1CC(=O)N[C@@H]([C@@H](C)CC)C(=O)N(C)[C@@H](CC(C)C)C(=O)N[C@H](C(=O)N2CCCCC2)CC(=O)N(C)[C@@H](C)C(=O)N(C)[C@@H](CC(C)C)C(=O)N[C@@H]([C@@H](C)O)C(=O)N(C)[C@@H](Cc2ccccc2)C(=O)N[C@@H](CC)C(=O)N(C)[C@@H](Cc2ccccc2)C(=O)N[C@@H](CC(C)C)C(=O)N(C)[C@@H]([C@@H](C)CC)C(=O)N[C@@H](CC(C)C)C1=O [pd103] ([NMeA][NMeL]T[NMeF][Abu][NMeF]L[NMeI]L[NBuGly]I[NMeL]D-Piperidide; lactam N-13) |  |  |  | 25.5 | 21.3 | 0.08 | 0.08 10^-6 cm/sec
CC[C@H](C)[C@@H]1NC(=O)[C@H](CC(C)C)N(C)C(=O)[C@H](CC(C)C)NC(=O)[C@H](C)N(C)C(=O)C[C@@H](C(=O)N2CCCCC2)NC(=O)[C@H](CC(C)C)NC(=O)[C@@H]2CCCN2C(=O)[C@H](CC(C)C)N(C)C(=O)[C@H]([C@@H](C)O)NC(=O)[C@H]([C@@H](C)CC)N(C)C(=O)[C@H](Cc2ccccc2)N(C)C(=O)[C@H](C)NC(=O)[C@H](Cc2ccccc2)N(C)C1=O [pd104] ([NMeA]L[NMeL]I[NMeF]A[NMeF][NMeI]T[NMeL]PLD-Piperidide; lactam N-13) |  |  |  | 36 | 36.2 | 0.2 | 0.20 10^-6 cm/sec
CC[C@@H]1NC(=O)[C@H](Cc2ccccc2)N(C)C(=O)[C@H](CC(C)C)NC(=O)CNC(=O)[C@H]([C@@H](C)O)N(C)C(=O)[C@H](CC(C)C)N(C)C(=O)[C@H]([C@@H](C)CC)NC(=O)[C@H](Cc2ccccc2)N(C)C(=O)CN(C)C(=O)C[C@@H](C(=O)N2CCCCC2)NC(=O)[C@H](C(C)C)N(C)C(=O)[C@H](CC(C)C)NC(=O)[C@H](C)N(C)C1=O [pd105] ([Sar][NMeF]I[NMeL][NMeT]GL[NMeF][Abu][NMeA]L[NMeV]D-Piperidide; lactam N-13) |  |  |  | 28.9 | 22.7 | 0.11 | 0.11 10^-6 cm/sec
CC[C@@H]1NC(=O)[C@H](C(C)C)N(C)C(=O)[C@H](CC(C)C)NC(=O)[C@H](CC(C)C)N(C)C(=O)[C@H]([C@@H](C)O)NC(=O)CN(C)C(=O)[C@H]([C@@H](C)CC)NC(=O)[C@H](Cc2ccccc2)N(C)C(=O)[C@H](CC(C)C)N(C)C(=O)C[C@@H](C(=O)N2CCCCC2)NC(=O)[C@H](Cc2ccccc2)N(C)C(=O)[C@H](COC(C)(C)C)NC(=O)[C@@H]2CCCN2C1=O [pd106] ([NMeL][NMeF]I[Sar]T[NMeL]L[NMeV][Abu]PS(tBu)[NMeF]D-Piperidide; lactam N-13) |  |  |  | 32.7 | 37.4 | 0.24 | 0.24 10^-6 cm/sec
CC(C)C[C@@H]1NC(=O)[C@H](CC(C)C)N(C)C(=O)[C@H](C(C)C)N(C)C(=O)[C@H](CCc2ccccc2)NC(=O)[C@H]([C@@H](C)O)N(C)C(=O)[C@@H](C(C)C)NC(=O)C[C@@H](C(=O)N2CCCCC2)NC(=O)[C@H](C(C)C)N(C)C(=O)[C@H](CC(C)C)NC(=O)[C@H](Cc2ccccc2)N(C)C(=O)[C@@H]2CCCN2C(=O)[C@H](CC(C)C)N(C)C(=O)CN(C)C1=O [pd107] ([dV][NMeT][hPhe][NMeV][NMeL]L[Sar][NMeL]P[NMeF]L[NMeV]D-Piperidide; lactam N-13) |  |  |  | 36.3 | 31.5 | 0.81 | 0.81 10^-6 cm/sec
